Assay results taken from ChEMBL document CHEMBL1201862, “PubChem BioAssay data set” (2004).
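48-hour exposure; five concentrations; linearly interpolated endpoints. Here, GI50 denotes the concentration required for 50% inhibition of growth.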 The source made the active and inactive calls. Cut-off read from the data, not from the text of the source: active = GI50 up to about 1.1 µM and inactive = higher.

Assays:
Assay in all cases: DTP human tumour cell line panel, 48 h
[1] = test system: 786-0
[2] = test system: A549
[3] = test system: ACHN
[4] = test system: DU-145
[5] = test system: HL-60
[6] = test system: HOP-62
[7] = test system: HOP-92
[8] = test system: K562
[9] = test system: KM12
[10] = test system: LOX IMVI
[11] = test system: M14
[12] = test system: MCF7
[13] = test system: MDA-MB-231
[14] = test system: Malme-3M
[15] = test system: OVCAR-4
[16] = test system: RPMI-8226
[17] = test system: SF-539
[18] = test system: SW-620
[19] = test system: UACC-62
[20] = test system: T47D

Measured: GI50

COc1ccc(C2=NOC(N)(c3ccc(OC)cc3)C2)cc1 (stereo unspecified)
inactive: [1] 90.8 µM | [2] > 100 µM | [3] > 100 µM | [4] > 100 µM | [5] 38.2 µM | [6] 64.7 µM | [7] > 100 µM | [8] > 100 µM | [9] 30.8 µM | [10] > 100 µM | [11] > 100 µM | [12] > 100 µM | [13] 81.5 µM | [14] 66.5 µM | [15] 86.5 µM | [16] > 100 µM | [17] > 100 µM | [18] > 100 µM | [19] > 100 µM

COc1cc(C)cc2c1c(=O)c1ccccc1n2C
inactive: [1] 38.5 µM | [2] 40.4 µM | [3] 36 µM | [4] 49.3 µM | [5] 33.7 µM | [6] 41.4 µM | [7] 31.4 µM | [8] 18.2 µM | [9] 34.4 µM | [10] 16.8 µM | [11] 34.7 µM | [12] 16.4 µM | [13] 53.5 µM | [14] 39.7 µM | [15] 35.3 µM | [16] 19.7 µM | [17] 20.2 µM | [18] 46.2 µM | [19] 33.7 µM

NC(=O)C(N)Cc1ccc(O)cn1 (stereo unspecified)
inactive: [1] > 100 µM | [2] > 100 µM | [3] > 100 µM | [4] > 100 µM | [5] > 100 µM | [6] > 100 µM | [7] > 100 µM | [8] > 100 µM | [9] > 100 µM | [10] > 100 µM | [12] > 100 µM | [13] > 100 µM | [14] > 100 µM | [15] > 100 µM | [16] > 100 µM | [17] > 100 µM | [18] > 100 µM

Nc1ccccc1C(=O)C(Br)C(Br)c1ccc2c(c1)OCO2 (stereo unspecified)
inactive: [1] 31 µM | [2] 20.6 µM | [3] 18.2 µM | [5] 40.7 µM | [6] 21.8 µM | [7] 15 µM | [8] 31.1 µM | [9] 18 µM | [10] 14 µM | [11] 18.4 µM | [14] 18.4 µM | [15] 27.4 µM | [16] 33.7 µM | [17] 18.4 µM | [18] 32.6 µM | [19] 16.8 µM

O=C(Nc1ccccc1)c1cc(S(=O)(=O)Nc2n[nH]c(=O)[nH]2)c(SSc2cc(Cl)c(C(=O)Nc3ccccc3)cc2S(=O)(=O)Nc2n[nH]c(=O)[nH]2)cc1Cl
inactive: [1] > 100 µM | [2] > 100 µM | [3] > 100 µM | [5] > 100 µM | [6] > 100 µM | [7] > 100 µM | [8] 55.5 µM | [9] > 100 µM | [10] > 100 µM | [11] > 100 µM | [12] > 100 µM | [13] > 100 µM | [14] > 100 µM | [15] > 100 µM | [16] > 100 µM | [18] > 100 µM

O=C1C2C(C(=O)N1c1ccccc1)C1(Br)c3ccccc3C2(Br)C2C(=O)N(c3ccccc3)C(=O)C21 (stereo unspecified)
inactive: [1] 20.5 µM | [2] 28.1 µM | [3] 18.1 µM | [5] > 31.6 µM | [6] > 10 µM | [7] > 10 µM | [8] 6.27 µM | [9] 16.6 µM | [10] > 31.6 µM | [11] > 31.6 µM | [14] 30.1 µM | [15] 7.21 µM | [16] 10.6 µM | [17] 27.2 µM | [18] > 31.6 µM | [19] 23.7 µM

CC(NC(=O)C(CC(=O)OCc1ccccc1)NC(=O)OCc1ccccc1)c1ccccc1 (stereo unspecified)
inactive: [1] 49.2 µM | [2] 73.5 µM | [3] 67.5 µM | [4] > 100 µM | [6] 49.2 µM | [8] > 100 µM | [9] > 100 µM | [11] 27.7 µM | [12] > 100 µM | [13] 79.3 µM | [14] 73.3 µM | [16] > 100 µM | [17] 64.3 µM | [18] > 100 µM | [20] > 100 µM | [19] 37.8 µM

[N-]=[N+]=NC1=C(C(=O)c2ccccc2)C(=O)c2cccc3cccc1c23
inactive: [1] 25.3 µM | [2] 45.2 µM | [3] 37.7 µM | [6] 17.1 µM | [7] 28.4 µM | [8] 54.5 µM | [9] 25.1 µM | [11] 49.9 µM | [12] 6.79 µM | [13] 23.4 µM | [14] 46.7 µM | [15] 39.5 µM | [16] 37.2 µM | [17] 49.3 µM | [18] > 100 µM | [20] 78.3 µM | [19] 31.3 µM
